From article doi:10.1101/2024.10.29.620944v2, “Discovery and isolation of novel capsaicinoids and their TRPV1-related activity” (biorxiv, 2025)
pEC50: −log10 of the molar value. Like-named read-outs stand apart in the source and are kept apart here.

Experiments:
[1] = target: T1, rat TRPV1 receptor (rTRPV1) (Rattus norvegicus, UniProt O35433); test: cell-based
T1 construct: rat TRPV1 stably expressed under doxycycline control (Tet-on) in Flp-In T-REx-293 cells (irTRPV1-FlpIn293); homotetramer
Description: Purchased capsaicinoid standards, capsiate (both MedChemExpress), vanillin (Honeywell Fluka) and 4-hydroxy-3-methoxybenzyl alcohol (Alfa Aesar) and AMG-517 (TargetMol, Boston, MA, USA) were all dissolved in DMSO to 10 mM as stock solutions. Stably transfected irTRPV1-FlpIn293 cells with Tet-on system (procedure described in Supplementary Methods 1.3) were grown to confluence in Advanced Dulbecco’s Modified Eagle Medium (Adv-DMEM/F12, #12634) supplemented with 10% FBS, 1% Pen Strep, 1% Glutamax (all Gibco, Thermo Fisher Scientific). Forty-eight hours before the experiment, doxycycline (final concentration 1 μg/mL)(Sigma-Aldrich, St.Luid, Mi., USA) and 10 μM ruthenium red (RR; Merck KGaG, Darmstadt, Germany) were added to the media to induce TRPV1 expression. After 24 hours, the cells were washed and detached with 0.5% trypsin–EDTA in PBS (Gibco). Cells resuspended in blocking media (Adv-DMEM/F12 + 10% FBS + 10 μM RR) were counted and then seeded into a 384-well plate (3674, Corning, Corning, NY, USA) in the amount of 3×10^4 per well. Twenty-four hours after seeding, a 2× Fluo-4 direct dye solution (Invitrogen, Thermo Fisher Scientific), dissolved in HHBS buffer, pH ∼ 7.4, was added to well with cells and incubated for 30 minutes at 37°C and then for 40 minutes at room temperature. Once incubated with the dye, the supernatant was removed using BlueWasher (BlueCatbio NH Inc., Lebanon, NH, USA) and changed to an HHBS + 10 μM sulfinpyrazone (Merck KGaG) solution added by Certus (Fritz Gyger AG, Gwatt, Switzerland), followed by 10 minutes of incubation in FDSS μCell (∼ 30°C; Hamamatsu, Hamamatsu city, Japan). A separate compound plate was prepared using an Echo dispenser 650 (Beckman Coulter Inc.,Brea, CA, USA). The final concentration was reached by adding HHBS + 10 μM sulfinpyrazone as above by Certus. The rTRPV1 activity measurement started by recording the baseline (40 s, sample interval 0.339 s). Then the compounds/compound mixture were transferred to the dedicated wells by tips while the recording was running for the next 5 minutes.

[2] = target: T1, rat TRPV1 receptor (rTRPV1); test: Fluo-4 calcium influx assay, FDSS, irTRPV1-FlpIn293 cells; format: cell-based; conditions: for EC50: agonist, HHBS pH ~7.4, ~30 °C
[3] = target: T1, rat TRPV1 receptor (rTRPV1); test: cell-based; design: species or system irTRPV1-FlpIn293 (HEK293); Fluo-4 calcium influx, FDSS, TRPV1 activation
Description: Purchased capsaicinoid standards, capsiate (both MedChemExpress), vanillin (Honeywell Fluka) and 4-hydroxy-3-methoxybenzyl alcohol (Alfa Aesar) and AMG-517 (TargetMol, Boston, MA, USA) were all dissolved in DMSO to 10 mM as stock solutions. Stably transfected irTRPV1-FlpIn293 cells with Tet-on system (procedure described in Supplementary Methods 1.3) were grown to confluence in Advanced Dulbecco’s Modified Eagle Medium (Adv-DMEM/F12, #12634) supplemented with 10% FBS, 1% Pen Strep, 1% Glutamax (all Gibco, Thermo Fisher Scientific). Forty-eight hours before the experiment, doxycycline (final concentration 1 μg/mL)(Sigma-Aldrich, St.Luid, Mi., USA) and 10 μM ruthenium red (RR; Merck KGaG, Darmstadt, Germany) were added to the media to induce TRPV1 expression. After 24 hours, the cells were washed and detached with 0.5% trypsin–EDTA in PBS (Gibco). Cells resuspended in blocking media (Adv-DMEM/F12 + 10% FBS + 10 μM RR) were counted and then seeded into a 384-well plate (3674, Corning, Corning, NY, USA) in the amount of 3×10^4 per well. Twenty-four hours after seeding, a 2× Fluo-4 direct dye solution (Invitrogen, Thermo Fisher Scientific), dissolved in HHBS buffer, pH ∼ 7.4, was added to well with cells and incubated for 30 minutes at 37°C and then for 40 minutes at room temperature. […]

[4] = Flp-In-T-REx-293; read-out: Top

T1 sequence (O35433 whole entry): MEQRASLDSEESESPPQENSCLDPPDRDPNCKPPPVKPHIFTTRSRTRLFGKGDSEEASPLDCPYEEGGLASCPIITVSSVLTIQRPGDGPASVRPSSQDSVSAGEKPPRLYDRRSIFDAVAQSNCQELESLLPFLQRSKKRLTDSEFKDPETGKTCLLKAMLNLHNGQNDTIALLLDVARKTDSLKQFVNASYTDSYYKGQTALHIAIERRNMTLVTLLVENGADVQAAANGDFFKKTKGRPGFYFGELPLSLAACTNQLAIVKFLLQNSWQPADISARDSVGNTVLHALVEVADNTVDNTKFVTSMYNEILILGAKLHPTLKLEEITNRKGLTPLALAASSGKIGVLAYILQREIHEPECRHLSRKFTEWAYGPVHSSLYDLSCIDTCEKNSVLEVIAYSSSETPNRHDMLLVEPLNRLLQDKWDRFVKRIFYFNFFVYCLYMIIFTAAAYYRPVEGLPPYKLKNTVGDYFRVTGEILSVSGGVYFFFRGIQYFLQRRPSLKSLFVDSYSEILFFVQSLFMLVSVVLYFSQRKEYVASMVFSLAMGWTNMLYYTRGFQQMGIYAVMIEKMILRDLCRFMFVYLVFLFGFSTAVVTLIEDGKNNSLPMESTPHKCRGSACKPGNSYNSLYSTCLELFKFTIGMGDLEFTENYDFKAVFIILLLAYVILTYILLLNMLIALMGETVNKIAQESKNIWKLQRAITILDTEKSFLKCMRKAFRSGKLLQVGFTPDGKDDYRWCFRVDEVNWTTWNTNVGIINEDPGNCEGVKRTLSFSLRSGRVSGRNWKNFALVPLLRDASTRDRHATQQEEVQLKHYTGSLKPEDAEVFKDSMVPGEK

SMILES	Emax [1, 4] [%]	pEC50 ([2]; read-out: EC50)	further results
COc1cc(CNC(=O)CCCCCC(O)C(C)C)ccc1O (stereo not drawn) [compound 34, N-vanillyl-7-hydroxy-8-methylnonamide]	90.6	5.84	–
COc1cc(CNC(=O)CCCC/C=C/C(C)C)cc(-c2cc(CNC(=O)CCCCCCC(C)C)cc(OC)c2O)c1O [compound 23, 6″,7″-Dihydro-5′,5‴-dicapsaicin]	90.7	–	pEC50 [1]: 4.99; EC50 ([2]; unreliable (sample 79.94% pure, trace monomers may inflate the potency), read-out: EC50): 10270 nM
COc1cc(CNC(=O)C=CC=CC(C)C)ccc1O [compound 35, N-vanillyl 6-Methyl-2,4-heptadienamide]	77.8	5.92	–
COc1cc(CNC(=O)CCCC/C=C/C(C)C)ccc1O[C@@H]1O[C@H](CO)[C@@H](O)[C@H](O)[C@H]1O [compound 24, Capsaicin β-D-glucopyranoside]	102	5.33	–
COc1cc(CNC(=O)CC/C=C/C(C)C)ccc1O [compound 10, Nornorcapsaicin]	77.8	6.09	–
COc1cc(CNC(=O)CCCC/C=C/C(C)CO)ccc1O (stereo not drawn) [compound 22, ω-Hydroxycapsaicin]	90	5.25	–
COc1cc(CNC(=O)CC/C=C/C=C/C(C)C)ccc1O [compound 16, N-vanillyl-4E,6E-dien-8-methylnonanamide]	94.3	6.85	–
COc1cc(CNC(=O)CCCC/C=C/C(C)C)cc(-c2cc(CNC(=O)CCCC/C=C/C(C)C)cc(OC)c2O)c1O [compound 38, 5,5’-dicapsaicin]	83.3	–	EC50 ([2]; unreliable (trace monomers may inflate the potency)): 4.46E-06 (95% CI 3.848e-006 to 5.265e-006) M
COc1cc(CNC(=O)CCCCCCCC(C)O)ccc1O (stereo not drawn) [compound 33, N-vanillyl-9-hydroxydecanamide]	96.5	5.20	–
COc1cc(CNC(=O)CCCCCCC(C)C)ccc1O [compound 2, Dihydrocapsaicin]	–	7.30	–
COc1cc(COC(=O)CCCC/C=C/C(C)C)ccc1O [compound 39, capsiate]	–	–	pEC50 [3]: 3.31
CCCCCCCC/C=C\CCCCCCCC(=O)NCc1ccc(O)c(OC)c1 [compound 20, Olvanil]	40.4	6.92	–
COc1cc(CNC(=O)CCCCCC(=O)C(C)C)ccc1O [compound 31, N-(4-Hydroxy-3-methoxybenzyl)-8-methyl-7-oxononanamide]	84.2	6.25	pEC50 [1]: 6.22
COc1cc(CNC(=O)CCCCCCCC(C)C)ccc1O [compound 4, Homodihydrocapsaicin I]	–	6.49	–
COc1cc(CNC(=O)CCCCCC(C)C)ccc1O [compound 11, Nordihydrocapsaicin]	–	–	pEC50 [1]: 7.27
COc1cc(CNC(=O)CC(C)C)ccc1O [compound 30, N-isovalerylvanillylamin]	80	5.55	–
COc1cc(CNC(=O)CCCCC2OC2C(C)C)ccc1O (stereo not drawn) [compound 32, Epicapsaicin]	110	6.22	pEC50 [1]: 5.95
CCCCCCCCC(=O)NCc1ccc(O)c(OC)c1 [compound 17, Nonivamide]	–	–	Emax ([1]; Flp-In-T-REx-293, read-out: Top): 105%
COc1cc(CNC(=O)CCCCC(C)C)ccc1O [compound 27, Nornordihydrocapsaicin]	94.8	5.98	–
CCCCCCCCCC(=O)NCc1ccc(O)c(OC)c1 [compound 14, N-Vanillyldecanamide]	114	6.70	–
CCCCCCC(=O)NCc1ccc(O)c(OC)c1 [compound 26, N-Heptanoate vanillylamide]	114	5.74	–
CCCCCCCC(=O)NCc1ccc(O)c(OC)c1 [compound 13, N-vanillyl octanamide]	93.7	6.82	–
